# Laboratory results: ChEMBL document CHEMBL1201862, “PubChem BioAssay data set” (2004)
# Activity calls are given as the source filed them.
# How the values were obtained:
# [1] = mitochondrial function rescue without frataxin homolog – Friedreich's ataxia, plus single-dose screen, dose response (AID 1465); type: functional;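 also: yeast depleted of Yfh1p frataxin homolog grown on glycerol needing respiration; WST-1 tetrazolium dye reduction as measure of cellular dehydrogenase metabolic activity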
# BJ [2] = assay: BJ-TERT fibroblast viability loss – cell-based, RAS-independent, luminescence, dose response (AID 1933); type: functional; details: Homo sapiens
# [3] = DRD fibroblast viability loss – cell-based, non-viral oncogenic, luminescence, dose response (AID 1934); type: functional; details: Homo sapiens
# [4] = luciferase reporter signal reduction – luminescence, H4-C neuroglioblastoma cells, dose response (AID 2458); type: functional, cell-based;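 also: H4 neuroglioblastoma cells stably carrying a luciferase reporter gene fusion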
# [5] = alpha-synuclein stem-loop translation blockers – luminescence, H4 neuroglioblastoma cells, dose confirmation, confirmation (AID 2454); type: functional, cell-based;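 also: H4 neuroglioblastoma cells carrying an alpha-synuclein 5'UTR luciferase reporter; potency for inhibition of the luciferase signal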
# cells [6] = assay: cells
# [7] = NIH3T3 cell viability loss – ATP luminescence, mouse fibroblasts, counter-screen, dose response (AID 2010); type: functional, cell-based;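 also: cells exposed to compound for about 90 hours before reading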
# BJ [8] = assay: cells; type: functional, cell-based; details: Homo sapiens
# [9] = alpha-synuclein stem-loop luciferase translation blockers – H4 neuroglioma cells, luminescence, confirmation (AID 1988); type: functional, cell-based
# [10] = HEK-293T viability loss after treatment – luminescence, T-cell screen hits, cytotoxicity control for TCR NF-kB inhibitor project, dose response (AID 489026); type: functional, cell-based;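 also: cells exposed to compound about 14 hours before the viability readout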
# [11] = luciferase reporter signal suppression in cells – H4 neuroglioma cells, luminescence, dose response (AID 1990); type: functional, cell-based
# [12] = Luminescence-based dose response cell-based high throughput screening assay for cytotoxic compounds using the IEC-6 intestinal epithelial cell line. [Related pubchem assays: 1858 (Summary AID.), 1825 (Counterscreen.), 1907 (Confirmation screen.)]; type: functional
# [13] = Trypanosoma cruzi growth suppression in host cells – NIH3T3 host cells, beta-gal luminescence, confirmation (AID 2044); type: functional, cell-based;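 also: intracellular parasites grown in NIH/3T3 mouse fibroblasts as host cells; luminescent beta-galactosidase reporter signal from transgenic T. cruzi replicating inside host cells; inhibitors lower the luminescence signal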
# cells [14] = type: functional, cell-based
# [15] = fluconazole-exposed Candida albicans growth modulators – fluorescence, retest, confirmation (AID 2467); type: functional, cell-based
# [16] = biological target: Transitional endoplasmic reticulum ATPase (Homo sapiens, UniProt P55072); assay: p97 ATPase inhibitors, dose response, biochemical (AID 1534)
# [17] = NIH-3T3 fibroblast cytotoxicity, dose response, cytotoxicity control, cell-based, fluorescence, Alamar Blue, secondary assay (AID 2327); type: functional;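 also: NIH-3T3 mouse fibroblasts cultured with fluconazole at 8 µg/mL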
# [18] = biological target: Transitional endoplasmic reticulum ATPase (Homo sapiens, UniProt P55072, C522A); assay: C522A mutant p97 ATPase inhibitors, dose response, counter-screen for p97 inhibitor project, biochemical, luminescence (AID 1544)
# [19] = biological target: T1, Microphthalmia-associated transcription factor (Homo sapiens, UniProt O75030); assay: reducers of TRPM1 reporter luminescence, concentration series – cell-based, SK-MEL-5, cherry-picked, set 3, MITF inhibitor project, dose response (AID 493073); type: functional;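 also: SK-MEL-5 melanoma cells with luciferase driven by the MITF target TRPM1 promoter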
# T1 sequence (O75030 whole entry): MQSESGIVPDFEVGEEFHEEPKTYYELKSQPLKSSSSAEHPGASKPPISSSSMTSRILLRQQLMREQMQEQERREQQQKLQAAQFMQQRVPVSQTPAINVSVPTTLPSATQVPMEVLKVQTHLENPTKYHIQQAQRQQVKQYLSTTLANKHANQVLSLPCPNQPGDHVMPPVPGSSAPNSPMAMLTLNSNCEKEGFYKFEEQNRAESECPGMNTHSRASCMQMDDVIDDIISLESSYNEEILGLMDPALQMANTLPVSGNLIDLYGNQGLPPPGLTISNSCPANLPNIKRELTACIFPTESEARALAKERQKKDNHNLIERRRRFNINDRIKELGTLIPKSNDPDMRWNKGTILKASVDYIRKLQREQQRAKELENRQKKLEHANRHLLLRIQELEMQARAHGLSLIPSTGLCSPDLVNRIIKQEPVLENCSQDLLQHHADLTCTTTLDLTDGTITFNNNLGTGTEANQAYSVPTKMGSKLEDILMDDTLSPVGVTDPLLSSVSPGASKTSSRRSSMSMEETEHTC
# Large T antigen = Large T antigen (Simian virus 40, UniProt P03070); type: functional, Betapolyomavirus macacae;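 also: Confirmatory-stage PubChem screen for compounds that inhibit SV40 T antigen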
# [20] = biological target: Peroxisome proliferator-activated receptor gamma/Nuclear receptor coactivator 1 (Homo sapiens, UniProt P37231); type: functional;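 also: agonist potency as compounds enhance coactivator SRC-1 recruitment to PPARgamma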
# [21] = biological target: Peroxisome proliferator-activated receptor gamma/Nuclear receptor coactivator 3 (Homo sapiens, UniProt P37231); type: functional;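 also: agonist potency for raising coactivator recruitment to the receptor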
# [22] = biological target: Peroxisome proliferator-activated receptor gamma/Nuclear receptor coactivator 2 (Homo sapiens, UniProt P37231); type: functional;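 also: agonist potency for raising coactivator recruitment to the receptor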
# Procathepsin L = Procathepsin L (Homo sapiens, UniProt P07711)
# Aspartyl aminopeptidase = biological target: T2, Aspartyl aminopeptidase (Plasmodium falciparum 3D7, UniProt Q8I2J3)
# T2 sequence (Q8I2J3 whole entry): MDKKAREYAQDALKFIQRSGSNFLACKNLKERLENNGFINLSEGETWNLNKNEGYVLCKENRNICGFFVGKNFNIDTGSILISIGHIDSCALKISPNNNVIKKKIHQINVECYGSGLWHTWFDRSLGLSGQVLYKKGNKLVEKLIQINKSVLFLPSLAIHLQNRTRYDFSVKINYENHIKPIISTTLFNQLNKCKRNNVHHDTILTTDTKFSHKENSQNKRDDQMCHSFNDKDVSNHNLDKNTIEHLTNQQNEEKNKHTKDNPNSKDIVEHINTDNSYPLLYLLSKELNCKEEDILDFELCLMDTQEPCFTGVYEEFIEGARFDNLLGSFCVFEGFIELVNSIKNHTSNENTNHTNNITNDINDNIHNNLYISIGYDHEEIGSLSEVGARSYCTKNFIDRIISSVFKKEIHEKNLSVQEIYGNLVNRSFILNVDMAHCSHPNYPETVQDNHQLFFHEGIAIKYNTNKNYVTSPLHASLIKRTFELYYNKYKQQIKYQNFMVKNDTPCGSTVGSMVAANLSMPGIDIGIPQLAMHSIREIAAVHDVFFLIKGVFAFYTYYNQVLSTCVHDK
# [23] = biological target: T3, Mannose-6-phosphate isomerase (Homo sapiens, UniProt P34949); assay: MPI enzyme activity inhibition – biochemical, fluorescence intensity, coupled assay, primary screen (AID 1209)
# T3 sequence (P34949 whole entry): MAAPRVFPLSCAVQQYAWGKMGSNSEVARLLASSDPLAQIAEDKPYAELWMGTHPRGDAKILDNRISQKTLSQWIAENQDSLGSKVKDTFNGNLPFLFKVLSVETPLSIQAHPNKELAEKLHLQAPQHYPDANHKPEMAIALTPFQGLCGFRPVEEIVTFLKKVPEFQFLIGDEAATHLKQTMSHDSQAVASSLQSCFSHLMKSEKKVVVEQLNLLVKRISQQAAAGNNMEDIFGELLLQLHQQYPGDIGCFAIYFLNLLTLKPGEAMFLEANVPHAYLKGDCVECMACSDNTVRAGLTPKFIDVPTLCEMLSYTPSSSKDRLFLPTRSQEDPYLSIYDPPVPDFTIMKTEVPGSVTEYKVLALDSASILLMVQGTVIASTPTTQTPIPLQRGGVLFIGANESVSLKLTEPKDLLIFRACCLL
# [24] = viability of PTEN-deleted HCT116 cells – cell-based, HCT116 PTEN knockout, dose response (AID 1047); type: functional;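 also: HCT116 colon tumor cells with PTEN knocked out; cells exposed to compound for 60 hours before readout; potency for loss of cell viability measured by luminescence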
# [25] = Luminescence Cell-Based Dose Retest to Confirm Inhibitors of Cancer Stem Cells. [Related pubchem assays (depositor defined):AID2717, AID2721]; type: functional; details: Homo sapiens
# [26] = viability of HCT116 lacking mutant beta-catenin – cell-based, human colon tumor, dose response (AID 1045); type: functional;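 also: HCT116 colon tumor cells with beta catenin knocked out; cells exposed to compound for 60 hours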
# [27] = biological target: T3, Mannose-6-phosphate isomerase; assay: MPI inhibition at elevated mannose 6-phosphate – biochemical, fluorescence intensity, high mannose 6-phosphate, primary screen (AID 1220)
# [28] = biological target: T4, Zinc finger protein mex-5 (Caenorhabditis elegans, UniProt Q9XUB2); assay: potency of MEX-5 RNA-binding blockers – biochemical, C. elegans, fluorescence polarization, dose response (AID 1960)
# T4 sequence (Q9XUB2 whole entry): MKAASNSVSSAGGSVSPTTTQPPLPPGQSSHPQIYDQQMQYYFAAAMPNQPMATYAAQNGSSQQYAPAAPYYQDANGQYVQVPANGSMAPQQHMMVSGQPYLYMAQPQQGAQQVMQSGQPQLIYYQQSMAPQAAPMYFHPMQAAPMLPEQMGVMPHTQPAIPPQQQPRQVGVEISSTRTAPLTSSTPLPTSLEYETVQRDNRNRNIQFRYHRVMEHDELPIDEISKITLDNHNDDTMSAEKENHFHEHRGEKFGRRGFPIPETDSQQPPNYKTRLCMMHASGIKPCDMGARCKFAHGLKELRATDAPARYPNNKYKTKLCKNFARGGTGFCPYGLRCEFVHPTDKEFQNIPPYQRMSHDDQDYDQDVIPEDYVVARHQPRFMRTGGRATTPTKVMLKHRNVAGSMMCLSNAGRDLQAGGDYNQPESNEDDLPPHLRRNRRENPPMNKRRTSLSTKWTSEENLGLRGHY
# Vero = assay: cells; type: functional; details: Chlorocebus sabaeus
# SUMO-activating enzyme [29] = biological target: T5, SUMO-activating enzyme (Homo sapiens, UniProt Q9UBT2); assay: blockers of SAE1/SAE2–UBC9 SUMO transfer – biochemical, HTRF, uHTS, primary screen (AID 2006); type: protein-complex assay
# H9c2 = assay: cells; type: functional, cell-based; details: Rattus norvegicus, H9c2, Myocardium;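 also: confirmatory concentration-response retest of ultra-high-throughput screening hits for modulation of myocardial damage; cell death induced by hydrogen peroxide oxidative stress; compound pretreatment for 60 min then peroxide exposure for 2 h; potency is for protecting the cells against peroxide damage rather than for killing them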
# SUMO-activating enzyme [30] = biological target: T5, SUMO-activating enzyme; assay: blockers of UBC9-mediated SUMO conjugation – biochemical, AlphaScreen, SUMOylation inhibitor project, confirmation (AID 2018); type: functional
# [31] = biological target: T6, RNA-binding protein pos-1 (Caenorhabditis elegans, UniProt G5EF15); assay: disruptors of C. elegans POS-1 RNA interaction – biochemical, fluorescence polarization, dose response (AID 1964);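 also: purified POS-1 fused to maltose binding protein made in E. coli; potency of compounds blocking POS-1 binding to fluorescent RNA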
# T6 sequence (G5EF15 whole entry): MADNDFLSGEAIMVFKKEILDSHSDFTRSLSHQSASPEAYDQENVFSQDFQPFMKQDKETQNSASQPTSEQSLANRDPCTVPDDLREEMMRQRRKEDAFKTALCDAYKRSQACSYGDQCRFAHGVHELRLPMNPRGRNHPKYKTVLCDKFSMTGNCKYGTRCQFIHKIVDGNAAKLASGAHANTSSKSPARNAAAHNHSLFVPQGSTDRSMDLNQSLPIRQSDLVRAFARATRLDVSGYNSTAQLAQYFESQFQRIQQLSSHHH
# T5 sequence (Q9UBE0 whole entry): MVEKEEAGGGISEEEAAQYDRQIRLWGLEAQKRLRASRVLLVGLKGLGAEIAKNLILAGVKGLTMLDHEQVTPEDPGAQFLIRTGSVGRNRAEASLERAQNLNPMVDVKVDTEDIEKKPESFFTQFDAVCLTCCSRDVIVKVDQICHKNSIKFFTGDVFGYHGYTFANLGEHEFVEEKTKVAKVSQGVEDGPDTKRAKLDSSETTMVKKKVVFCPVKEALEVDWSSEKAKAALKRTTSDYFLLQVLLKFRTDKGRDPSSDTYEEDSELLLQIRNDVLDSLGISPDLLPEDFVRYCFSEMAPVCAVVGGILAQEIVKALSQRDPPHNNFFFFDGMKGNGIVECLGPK
# T5 sequence (Q9UBT2 whole entry): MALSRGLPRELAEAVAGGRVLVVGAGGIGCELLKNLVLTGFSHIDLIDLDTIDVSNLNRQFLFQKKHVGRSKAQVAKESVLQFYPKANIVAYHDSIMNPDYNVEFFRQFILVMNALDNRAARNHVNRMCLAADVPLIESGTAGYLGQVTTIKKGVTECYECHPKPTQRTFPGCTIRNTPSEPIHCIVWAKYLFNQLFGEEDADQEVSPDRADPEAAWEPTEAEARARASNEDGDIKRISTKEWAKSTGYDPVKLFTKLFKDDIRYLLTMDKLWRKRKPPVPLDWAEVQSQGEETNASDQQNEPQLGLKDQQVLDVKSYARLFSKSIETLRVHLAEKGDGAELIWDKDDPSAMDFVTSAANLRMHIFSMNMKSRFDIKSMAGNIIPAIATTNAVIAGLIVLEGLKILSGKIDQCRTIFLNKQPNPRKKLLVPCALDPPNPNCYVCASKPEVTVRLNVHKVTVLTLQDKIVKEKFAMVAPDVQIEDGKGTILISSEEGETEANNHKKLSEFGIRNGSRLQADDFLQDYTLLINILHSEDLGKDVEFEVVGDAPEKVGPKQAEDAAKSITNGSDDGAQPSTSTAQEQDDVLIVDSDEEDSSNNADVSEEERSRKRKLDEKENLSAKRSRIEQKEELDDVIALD
# Chain of Peroxisome proliferator-activated receptor gamma/Nuclear receptor coactivator 1 (P37231 whole entry): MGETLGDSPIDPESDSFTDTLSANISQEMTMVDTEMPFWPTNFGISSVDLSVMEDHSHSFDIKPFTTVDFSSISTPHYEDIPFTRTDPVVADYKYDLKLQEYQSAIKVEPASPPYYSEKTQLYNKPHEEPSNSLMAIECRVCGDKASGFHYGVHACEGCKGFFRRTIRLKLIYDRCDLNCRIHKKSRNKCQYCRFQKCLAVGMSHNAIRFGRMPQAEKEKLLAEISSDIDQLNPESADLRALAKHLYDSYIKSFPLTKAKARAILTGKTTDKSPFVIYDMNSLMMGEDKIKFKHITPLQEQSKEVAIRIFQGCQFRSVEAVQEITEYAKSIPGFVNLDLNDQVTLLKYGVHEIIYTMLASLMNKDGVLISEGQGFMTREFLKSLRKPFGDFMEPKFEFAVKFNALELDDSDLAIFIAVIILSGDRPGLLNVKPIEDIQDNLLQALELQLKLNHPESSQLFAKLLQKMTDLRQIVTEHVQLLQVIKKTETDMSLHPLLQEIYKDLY
# Chain of Peroxisome proliferator-activated receptor gamma/Nuclear receptor coactivator 1 (Q15788 whole entry, further chain): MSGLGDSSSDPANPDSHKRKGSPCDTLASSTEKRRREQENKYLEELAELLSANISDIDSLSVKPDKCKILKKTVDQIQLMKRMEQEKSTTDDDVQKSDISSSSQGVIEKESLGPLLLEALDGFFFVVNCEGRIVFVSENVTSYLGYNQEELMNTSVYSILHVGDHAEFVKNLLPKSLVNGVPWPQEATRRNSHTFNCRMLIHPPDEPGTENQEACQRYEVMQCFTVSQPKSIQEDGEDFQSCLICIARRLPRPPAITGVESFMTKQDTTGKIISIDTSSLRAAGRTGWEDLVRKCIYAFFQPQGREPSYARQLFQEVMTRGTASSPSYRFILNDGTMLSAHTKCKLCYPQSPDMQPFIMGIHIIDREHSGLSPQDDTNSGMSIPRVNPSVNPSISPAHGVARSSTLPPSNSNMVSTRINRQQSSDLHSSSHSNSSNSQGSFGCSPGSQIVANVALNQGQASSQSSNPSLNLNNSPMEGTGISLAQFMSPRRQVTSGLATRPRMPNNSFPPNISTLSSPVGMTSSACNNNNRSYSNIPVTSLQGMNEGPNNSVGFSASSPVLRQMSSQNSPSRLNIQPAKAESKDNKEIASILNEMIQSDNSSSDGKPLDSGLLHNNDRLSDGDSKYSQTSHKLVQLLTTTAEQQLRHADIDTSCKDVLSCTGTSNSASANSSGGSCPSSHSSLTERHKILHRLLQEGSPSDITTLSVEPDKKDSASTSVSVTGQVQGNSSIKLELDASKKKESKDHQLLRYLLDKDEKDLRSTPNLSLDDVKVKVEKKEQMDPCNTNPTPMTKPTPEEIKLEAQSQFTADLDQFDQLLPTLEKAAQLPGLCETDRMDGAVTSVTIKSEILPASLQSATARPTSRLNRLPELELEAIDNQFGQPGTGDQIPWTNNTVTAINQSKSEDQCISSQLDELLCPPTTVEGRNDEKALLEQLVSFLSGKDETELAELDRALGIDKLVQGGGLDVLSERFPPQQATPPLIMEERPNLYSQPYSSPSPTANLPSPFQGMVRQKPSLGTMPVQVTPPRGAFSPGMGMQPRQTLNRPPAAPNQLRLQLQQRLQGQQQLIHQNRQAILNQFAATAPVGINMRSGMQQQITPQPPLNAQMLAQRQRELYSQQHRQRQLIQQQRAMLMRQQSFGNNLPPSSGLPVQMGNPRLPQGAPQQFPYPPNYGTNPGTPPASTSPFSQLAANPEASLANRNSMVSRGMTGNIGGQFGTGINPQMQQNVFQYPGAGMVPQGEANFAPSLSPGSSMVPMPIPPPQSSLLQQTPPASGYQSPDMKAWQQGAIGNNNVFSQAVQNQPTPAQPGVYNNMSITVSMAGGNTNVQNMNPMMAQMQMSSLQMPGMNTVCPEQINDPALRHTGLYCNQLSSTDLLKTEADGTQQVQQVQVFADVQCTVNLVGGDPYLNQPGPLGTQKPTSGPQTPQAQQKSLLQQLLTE
# Chain of Peroxisome proliferator-activated receptor gamma/Nuclear receptor coactivator 3 (P37231 whole entry): as the sequence (P37231 whole entry) above
# Chain of Peroxisome proliferator-activated receptor gamma/Nuclear receptor coactivator 3 (Q9Y6Q9 whole entry, further chain): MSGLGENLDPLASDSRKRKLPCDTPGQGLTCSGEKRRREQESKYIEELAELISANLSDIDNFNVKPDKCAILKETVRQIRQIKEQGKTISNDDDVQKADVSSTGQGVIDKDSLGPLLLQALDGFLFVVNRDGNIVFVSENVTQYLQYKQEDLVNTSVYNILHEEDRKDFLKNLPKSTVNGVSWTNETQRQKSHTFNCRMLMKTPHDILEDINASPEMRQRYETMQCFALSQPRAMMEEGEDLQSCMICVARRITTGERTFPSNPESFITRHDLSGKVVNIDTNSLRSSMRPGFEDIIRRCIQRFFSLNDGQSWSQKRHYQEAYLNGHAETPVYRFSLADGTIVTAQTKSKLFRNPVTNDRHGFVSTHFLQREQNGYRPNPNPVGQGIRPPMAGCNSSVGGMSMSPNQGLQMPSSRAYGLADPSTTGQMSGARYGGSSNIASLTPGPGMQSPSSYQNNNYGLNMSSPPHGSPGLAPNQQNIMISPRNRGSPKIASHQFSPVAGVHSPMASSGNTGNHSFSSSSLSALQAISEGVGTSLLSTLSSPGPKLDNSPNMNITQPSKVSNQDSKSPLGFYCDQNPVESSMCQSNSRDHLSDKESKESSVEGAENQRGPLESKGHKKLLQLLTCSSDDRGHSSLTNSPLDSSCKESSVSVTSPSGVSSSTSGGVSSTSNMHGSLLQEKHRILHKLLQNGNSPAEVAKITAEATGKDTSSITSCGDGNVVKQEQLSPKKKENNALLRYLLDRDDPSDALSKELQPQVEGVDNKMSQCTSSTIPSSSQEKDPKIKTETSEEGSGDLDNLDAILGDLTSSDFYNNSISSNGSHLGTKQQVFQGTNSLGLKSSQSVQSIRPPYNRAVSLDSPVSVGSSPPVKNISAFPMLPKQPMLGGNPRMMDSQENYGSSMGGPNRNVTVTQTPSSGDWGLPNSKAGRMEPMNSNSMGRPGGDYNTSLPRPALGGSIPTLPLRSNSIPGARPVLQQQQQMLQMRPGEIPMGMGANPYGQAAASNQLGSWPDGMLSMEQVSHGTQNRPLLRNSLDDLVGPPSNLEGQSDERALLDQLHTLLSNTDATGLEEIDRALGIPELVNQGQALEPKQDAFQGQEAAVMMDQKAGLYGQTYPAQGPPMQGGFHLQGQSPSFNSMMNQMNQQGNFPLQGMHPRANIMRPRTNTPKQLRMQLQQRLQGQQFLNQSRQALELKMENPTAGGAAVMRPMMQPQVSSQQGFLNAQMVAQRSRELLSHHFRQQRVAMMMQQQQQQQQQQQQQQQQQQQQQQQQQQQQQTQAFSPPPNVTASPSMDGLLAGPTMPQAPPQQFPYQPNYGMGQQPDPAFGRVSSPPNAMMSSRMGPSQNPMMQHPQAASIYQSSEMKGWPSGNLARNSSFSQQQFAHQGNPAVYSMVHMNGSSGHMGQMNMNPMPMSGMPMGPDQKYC
structure (smiles),measurement,setting,value
Sc1nnc(CSCc2ccc(Cl)cc2Cl)n1-c1ccccc1,EC50,[1],> 100 µM (active)
C/C=C(\C)C(=O)N[C@@H](c1ccccc1)[C@@H](O)C(=O)O[C@H]1C[C@@]2(O)[C@@H](OC(=O)c3ccccc3)C3[C@](C)(C(=O)[C@H](OC(C)=O)C(=C1C)C2(C)C)[C@H](O)C[C@H]1OC[C@@]31OC(C)=O (stereo partly specified),EC50,BJ [2],189 nM (active)
same,EC50,[3],< 120 nM (active)
same,EC50,[4],92 nM (active)
same,EC50,[5],110 nM (active)
same,EC50,cells [6],11 nM (active)
same,EC50,[7],171 nM (active)
same,EC50,BJ [8],> 150 µM (not active)
same,EC50,[9],< 100 nM (active)
same,IC50,[10],> 80 µM (inactive)
same,EC50,[11],1.71 µM (active)
same,IC50,[12],101 nM (active)
same,EC50,[13],< 100 nM (active)
same,EC50,cells [14],190 nM (active)
Cc1[nH]c2ccccc2c1C(=O)CCl,EC50,[15],497 nM (active)
same,IC50,[16],> 50 µM (not active)
same,EC50,[17],8.72 µM (inconclusive)
same,IC50,[18],> 50 µM (not active)
same,AC50,[19],6.78 µM (active)
Nc1nc2ccc(N3CCOCC3)cc2s1,IC50,Large T antigen,7.66 µM (active)
same,EC50,[20],> 79.4 µM (not active)
same,EC50,[21],> 79.4 µM (not active)
same,EC50,[22],> 79.4 µM (not active)
Cc1scc(C(=O)Nn2cnnc2)c1-c1ccccc1,IC50,Procathepsin L,> 59.6 µM (not active)
same,IC50,Aspartyl aminopeptidase,3.13 µM (active)
CCOC(=O)c1c2ccc(OCC(=O)N/N=C/c3ccc(C)cc3)cc2n2ccccc12,IC50,[23],> 50 µM (not active)
same,EC50,[24],5.25 µM (active)
same,AC50,[25],5.11 µM (active)
same,EC50,[26],6.24 µM (active)
same,IC50,[27],13.1 µM (active)
same,EC50,[28],> 300 µM (not active)
same,CC50,Vero,> 25 µM (active)
same,IC50,SUMO-activating enzyme [29],7.01 µM (active)
same,IC50,H9c2,40.5 µM (inactive)
same,IC50,SUMO-activating enzyme [30],17.9 µM (active)
same,EC50,[31],> 300 µM (not active)
